Read-outs that look alike come from different tables or passages of the source.
What was measured:
Assay in all cases: microbe, parasite or virus in culture
Format in all cases: cell-based
[1] = test system: HCV 3a RLuc cells (NS5A chimeric genotype 1b Con1 replicon with consensus genotype 3a NS5A gene)
Experimental: (§1) Evaluation of cell-based anti-HCV activity: Antiviral potency (EC50) was determined using a Renilla luciferase (RLuc)-based HCV replicon reporter assay. To perform the assay for genotype 1 and 2a JFH-1, HCV 1b RLuc cells (harboring a dicistronic genotype 1b Con1 replicon that encodes a RLuc reporter), or HCV 1a RLuc cells (harboring a dicistronic genotype 1a H77 replicon that encodes a RLuc reporter), or HCV 2a JFH-1 Rluc cells (harboring a dicistronic genotype 2a JFH-1 replicon that encodes a RLuc reporter) were dispensed into 384-well plates. To perform the assay for genotype 2a (with M31 present) or 2b, HCV 2a Rluc or 2b Rluc cells (both with M31 present) harboring a dicistronic NS5A chimeric genotype 2a JFH-1 replicon that encodes a RLuc reporter and either genotype 2a J6 strain NS5A gene or genotype 2b MD2b-1 NS5A gene (based on Los Alamos HCV database isolates, both with M31 present) respectively, were dispensed into 384-well plates. To perform the assay for genotype 3 and 4, HCV 3a RLuc or 4a Rluc cells harboring a dicistronic NS5A chimeric genotype 1b Con1 replicon that encodes a RLuc reporter and either a consensus genotype 3a NS5A gene or genotype 4a NS5A gene (based on Los Alamos HCV database isolates) respectively, were dispensed into 384-well plates. Compounds were re-suspended in DMSO at a concentration of 10 mM and serially diluted in DMSO either manually or using an automated pipeting instrument. Serially diluted compounds were mixed with cell culture media and added to the seeded cells. […] 72 hours later, cells were lysed and Renilla luciferase activity quantified as recommended by the manufacturer (Promega-Madison, Wis.). Non-linear regression was performed to calculate EC50 values.

[2] = test system: HCV 2a JFH-1 Rluc cells (dicistronic genotype 2a JFH-1 replicon, RLuc reporter); conditions: genotype 2a JFH-1 replicon, read-out: 2a JFH
Experimental: as §1

[3] = test system: HCV 1b RLuc cells (dicistronic genotype 1b Con1 replicon, RLuc reporter)
Experimental: as §1

[4] = test system: HCV 1a RLuc cells (dicistronic genotype 1a H77 replicon, RLuc reporter); conditions: genotype 1a H77 replicon, read-out: 1a
Experimental: as §1

[5] = Hepatitis C virus, read-out: 3a, genotype 3a NS5A chimeric 1b Con1 replicon
[6] = Hepatitis C virus, RLuc reporter
[7] = Hepatitis C virus, read-out: 1b (nM)
[8] = Hepatitis C virus, read-out: 3a, Table 2, genotype 3a NS5A chimeric replicon
[9] = Hepatitis C virus, 72 h, Table 2, 72 hours
[10] = Hepatitis C virus, 72 h, read-out: 1b (nM)

## COC(=O)NC(C(=O)N1CCC[C@H]1c1ncc(-c2ccc(-c3ccc4cc(-c5cnc([C@@H]6CCCN6C(=O)[C@@H](NC(=O)OC)C(C)C)[nH]5)ccc4c3)cc2)[nH]1)c1ccc(Cl)cc1 (stereo partly shown) [Example 107]
[1]; [5]
  EC50: 1 to 4.99 nM
[2]; [6]
  EC50: 1 to 44 nM
[3]; [7]
  EC50: 0.024 nM
[4]; [6]
  EC50: 1 to 44 nM

## COC(=O)N[C@H](C(=O)N1CCC[C@H]1c1ncc(-c2ccc3cc(-c4ccc(-c5cnc([C@@H]6C[C@@H](C)CN6C(=O)[C@H](NC(=O)OC)c6ccccc6)[nH]5)cc4)ccc3c2)[nH]1)C1CCOCC1 [Example 188]
[1]; [5]
  EC50: 0.001 to 0.99 nM
[2]; [6]
  EC50: 0.001 to 0.999 nM
[3]; [7]
  EC50: 0.012 nM
[4]; [6]
  EC50: 0.001 to 0.999 nM

## COC(=O)N[C@@H](CC(F)F)C(=O)N1CCC[C@H]1c1ncc(-c2ccc3cc(-c4ccc(-c5cnc([C@@H]6CCCN6C(=O)[C@H](NC(=O)OC)c6ccccc6)[nH]5)cc4)ccc3c2)[nH]1 [Example 127]
[1]; [5]
  EC50: 0.001 to 0.99 nM
[2]; [6]
  EC50: 0.001 to 0.999 nM
[3]; [7]
  EC50: 0.006 nM
[4]; [6]
  EC50: 0.001 to 0.999 nM

## COC(=O)N[C@H](C(=O)N1CC2(CC2)C[C@H]1c1ncc(-c2ccc3c(c2)C(F)(F)c2cc(-c4cnc([C@@H]5[C@H]6CC[C@H](C6)N5C(=O)[C@H](NC(=O)OC)c5ccccc5)[nH]4)ccc2-3)[nH]1)C(C)C [Example 37]
[1]; [8]
  EC50: 0.001 to 0.99 nM
[2]; [9]
  EC50: 1 to 44 nM
[3]; [10]
  EC50: 0.004 nM
[4]; [9]
  EC50: 0.001 to 0.999 nM

## COC(=O)N(C)[C@H](C(=O)N1CCC[C@H]1c1ncc(-c2ccc3cc(-c4ccc(-c5cnc([C@@H]6CCCN6C(=O)C(c6ccccc6)N6CCOCC6)[nH]5)cc4)ccc3c2)[nH]1)C(C)C (stereo partly shown) [Example 119]
[1]; [5]
  EC50: 0.001 to 0.99 nM
[2]; [6]
  EC50: 0.001 to 0.999 nM
[3]; [7]
  EC50: 0.02 nM
[4]; [6]
  EC50: 0.001 to 0.999 nM

## COC(=O)NC(C(=O)N1CCC[C@H]1c1ncc(-c2ccc(-c3ccc4cc(-c5cnc([C@@H]6CCCN6C(=O)[C@@H](NC(=O)OC)C(C)C)[nH]5)ccc4c3)cc2)[nH]1)c1cccc(C(F)(F)F)c1 (stereo partly shown) [Example 146]
[1]; [5]
  EC50: > 5 nM
[2]; [6]
  EC50: 1 to 44 nM
[3]; [7]
  EC50: 0.048 nM
[4]; [6]
  EC50: 1 to 44 nM

## COC(=O)N[C@H](C(=O)N1C[C@H](C)C[C@H]1c1ncc(-c2ccc(-c3ccc4cc(-c5cnc([C@@H]6C[C@H](C#N)CN6C(=O)[C@H](NC(=O)OC)c6ccccc6)[nH]5)ccc4c3)cc2)[nH]1)C(C)C [Example 113]
[1]; [5]
  EC50: 0.001 to 0.99 nM
[2]; [6]
  EC50: 0.001 to 0.999 nM
[3]; [7]
  EC50: 0.014 nM
[4]; [6]
  EC50: 0.001 to 0.999 nM

## COC(=O)N[C@H](C(=O)N1CCC[C@H]1c1ncc(-c2ccc3cc(-c4ccc(-c5cnc([C@@H]6CCCN6C(=O)[C@H](NC(=O)OC)c6ccccc6C)[nH]5)cc4)ccc3c2)[nH]1)C(C)C [Example 150]
[1]; [5]
  EC50: 0.001 to 0.99 nM
[2]; [6]
  EC50: 0.001 to 0.999 nM
[3]; [7]
  EC50: 0.006 nM
[4]; [6]
  EC50: 0.001 to 0.999 nM

## COC(=O)N[C@H](C(=O)N1CCC[C@H]1c1ncc(-c2ccc(-c3ccc4cc(-c5cnc([C@@H]6CCCN6C(=O)[C@@H](NC(=O)OC)C(C)C)[nH]5)ccc4c3)cc2)[nH]1)c1cccnc1 [Example 160]
[1]; [5]
  EC50: 0.001 to 0.99 nM
[2]; [6]
  EC50: 0.001 to 0.999 nM
[3]; [7]
  EC50: 0.017 nM
[4]; [6]
  EC50: 0.001 to 0.999 nM

## COC(=O)N[C@H](C(=O)N1CCC[C@H]1c1ncc(-c2ccc(-c3ccc4cc(-c5cnc([C@@H]6CCCN6C(=O)C(c6ccccc6)N6CCCC6)[nH]5)ccc4c3)cc2)[nH]1)C(C)C (stereo partly shown) [Example 125]
[1]; [5]
  EC50: 0.001 to 0.99 nM
[2]; [6]
  EC50: 0.001 to 0.999 nM
[3]; [7]
  EC50: 0.032 nM
[4]; [6]
  EC50: 0.001 to 0.999 nM

## CCC(=O)N[C@@H](C(=O)N1CCC[C@H]1c1ncc(-c2ccc(-c3ccc4cc(-c5cnc([C@@H]6CCCN6C(=O)[C@@H](NC(=O)OC)C(C)C)[nH]5)ccc4c3)cc2)[nH]1)c1ccccc1 [Example 187]
[1]; [5]
  EC50: 0.001 to 0.99 nM
[2]; [6]
  EC50: 0.001 to 0.999 nM
[3]; [7]
  EC50: 0.007 nM
[4]; [6]
  EC50: 0.001 to 0.999 nM

## COC(=O)N[C@H](C(=O)N1CCC[C@H]1c1ncc(-c2ccc3cc(-c4ccc(-c5cnc([C@@H]6C[C@H](C#N)CN6C(=O)[C@H](NC(=O)OC)c6ccccc6)[nH]5)cc4)ccc3c2)[nH]1)C(C)C [Example 124]
[1]; [5]
  EC50: 0.001 to 0.99 nM
[2]; [6]
  EC50: 0.001 to 0.999 nM
[3]; [7]
  EC50: 0.011 nM
[4]; [6]
  EC50: 0.001 to 0.999 nM

## COC(=O)N[C@H](C(=O)N1CCC[C@H]1c1nc2c([nH]1)-c1ccc(-c3ccc4cc(-c5cnc([C@@H]6CCCN6C(=O)[C@@H](NC(=O)OC)C6CCOCC6)[nH]5)ccc4c3)cc1CC2)C(C)C [Example 209]
[1]; [5]
  EC50: 0.001 to 0.99 nM
[2]; [6]
  EC50: 0.001 to 0.999 nM
[3]; [7]
  EC50: 0.014 nM
[4]; [6]
  EC50: 0.001 to 0.999 nM

## COC(=O)N[C@H](C(=O)N1CCC[C@H]1c1ncc(-c2ccc3cc(-c4ccc5c(c4)CCc4nc([C@@H]6CCCN6C(=O)[C@H](NC(=O)OC)c6ccccc6)[nH]c4-5)ccc3c2)[nH]1)C(C)C [Example 142]
[1]; [5]
  EC50: 0.001 to 0.99 nM
[2]; [6]
  EC50: 0.001 to 0.999 nM
[3]; [7]
  EC50: 0.013 nM
[4]; [6]
  EC50: 0.001 to 0.999 nM

## COC(=O)N[C@H](C(=O)N1C[C@H](C)C[C@H]1c1ncc(-c2ccc3cc(-c4ccc(-c5cnc([C@@H]6CCCN6C(=O)[C@H](NC(=O)OC)c6cccc(C)c6)[nH]5)cc4)ccc3c2)[nH]1)C(C)C [Example 184]
[1]; [5]
  EC50: 0.001 to 0.99 nM
[2]; [6]
  EC50: 0.001 to 0.999 nM
[3]; [7]
  EC50: 0.009 nM
[4]; [6]
  EC50: 0.001 to 0.999 nM

## COC(=O)N[C@H](C(=O)N1CCC[C@H]1c1ncc(-c2ccc(-c3ccc4cc(-c5cnc([C@@H]6CCCN6C(=O)[C@H](NC(=O)OC)c6ccccc6)[nH]5)ccc4c3)cc2)[nH]1)C(C)C [Example 27]
[1]; read-out: 3a, Table 2, genotype 3a NS5A chimeric replicon
  EC50: 0.001 to 0.99 nM
[2]; Table 2, 72 hours
  EC50: 0.001 to 0.999 nM
[3]; read-out: 1b
  EC50: 0.011 nM
[4]; Table 2, 72 hours
  EC50: 0.001 to 0.999 nM

## COC(=O)N[C@H](C(=O)N1CCC[C@H]1c1ncc(-c2ccc3cc(C#Cc4cnc([C@@H]5CCCN5C(=O)[C@H](NC(=O)OC)c5ccccc5)[nH]4)ccc3c2)[nH]1)C(C)C [Example 115]
[1]; [5]
  EC50: 0.001 to 0.99 nM
[2]; [6]
  EC50: 0.001 to 0.999 nM
[3]; [7]
  EC50: 0.019 nM
[4]; [6]
  EC50: 0.001 to 0.999 nM

## COC(=O)N[C@H](C(=O)N1C[C@H](C)C[C@H]1c1ncc(-c2ccc3cc(-c4ccc(-c5cnc([C@@H]6CCCN6C(=O)[C@H](NC(=O)OC)c6ccccc6)[nH]5)cc4)ccc3c2)[nH]1)C(C)C [Example 132]
[1]; [5]
  EC50: 0.001 to 0.99 nM
[2]; [6]
  EC50: 0.001 to 0.999 nM
[3]; [7]
  EC50: 0.003 nM
[4]; [6]
  EC50: 0.001 to 0.999 nM

## COC(=O)N[C@H](C(=O)N1[C@@H]2CC[C@@H](C2)[C@H]1c1ncc(-c2ccc(-c3ccc4c(ccc5nc([C@@H]6CCCN6C(=O)[C@@H](NC(=O)OC)C6CCOCC6)[nH]c54)c3)cc2)[nH]1)C(C)C [Example 82]
[1]; [8]
  EC50: 0.001 to 0.99 nM
[2]; [9]
  EC50: 0.001 to 0.999 nM
[3]; [10]
  EC50: 0.042 nM
[4]; [9]
  EC50: 0.001 to 0.999 nM

## COC(=O)N[C@H](C(=O)N1CCCC1c1ncc(-c2ccc3cc(-c4ccc(-c5cnc([C@@H]6CCCN6C(=O)[C@H](NC(=O)OC)c6ccccc6)[nH]5)cc4)ccc3c2)[nH]1)C1CCOCC1 (stereo partly shown) [Example 153]
[1]; [5]
  EC50: 0.001 to 0.99 nM
[2]; [6]
  EC50: 0.001 to 0.999 nM
[3]; [7]
  EC50: 0.012 nM
[4]; [6]
  EC50: 0.001 to 0.999 nM

## COC(=O)N[C@H](C(=O)N1C[C@H](C)C[C@H]1c1ncc(-c2ccc3cc(-c4ccc(-c5cnc([C@@H]6CCCN6C(=O)[C@H](NC(=O)OC)c6ccccc6OC)[nH]5)cc4)ccc3c2)[nH]1)C(C)C [Example 147]
[1]; [5]
  EC50: 0.001 to 0.99 nM
[2]; [6]
  EC50: 0.001 to 0.999 nM
[3]; [7]
  EC50: 0.012 nM
[4]; [6]
  EC50: 0.001 to 0.999 nM

## COC(=O)NC(C(=O)N1CC2(C[C@H]1c1nc3c([nH]1)-c1ccc(-c4ccc5c(ccc6nc([C@@H]7CCCN7C(=O)[C@@H](NC(=O)OC)C(C)C)[nH]c65)c4)cc1CC3)OCCO2)C1CCOCC1 (stereo partly shown) [Example 87]
[1]; [8]
  EC50: 0.001 to 0.99 nM
[2]; [9]
  EC50: 0.001 to 0.999 nM
[3]; [10]
  EC50: 0.163 nM
[4]; [9]
  EC50: 0.001 to 0.999 nM

— patent US10344019B2 (priority 2010, dated 2019)
